Results from ChEMBL document CHEMBL1764991, “Epiafzelechin from the root bark of Cassia sieberiana: detection by DART mass spectrometry, spectroscopic characterization, and antioxidant properties” (J Nat Prod, 2011).
≈ marks a conversion by molar mass, not a printed value.

Columns and labels:
[1] = system: Radical scavenging activity; assay: Antioxidant activity assessed as DPPH radical scavenging activity; format: functional
[2] = Antioxidant activity assessed as ferric ion reducing activity using fe3+-TPTZ at 20 ug/ml by FRAP assay; format: functional
[3] = Antioxidant activity assessed as ferric ion reducing activity using fe3+-TPTZ at 40 ug/ml by FRAP assay; format: functional
Liver [4] = assay: Inhibition of H2O2-induced lipid peroxidation in rat liver homogenates assessed as malondialdehyde level at 80 ug/ml after 4 hrs; format: functional, tissue-based
Liver [5] = assay: Inhibition of H2O2-induced lipid peroxidation in rat liver homogenates assessed as malondialdehyde level after 4 hrs; format: functional, tissue-based
[6] = Antioxidant activity assessed as ferric ion reducing activity using fe3+-TPTZ at 80 ug/ml by FRAP assay; format: functional
Liver [7] = assay: Inhibition of H2O2-induced lipid peroxidation in rat liver homogenates assessed as malondialdehyde level at 32 ug/ml after 4 hrs; format: functional, tissue-based

Row | Structure (SMILES) | IC50 [1] [µg/mL] | Activity [2] [µM/L] | Activity [3] [µM/L] | inhibition (Liver [4]) [%] | Activity (Liver [5]) [nM/ml] | Activity [6] [µM/L] | inhibition (Liver [7]) [%]
1 | Oc1ccc([C@H]2Oc3cc(O)cc(O)c3C[C@H]2O)cc1 [EPIAFZELECHIN (2R,3R)(-)] | 9.25 (≈ 33.7 µM) | 493 | 978 | 81.8 | 14.4 | 1510 | –
2 | O=c1c(O)c(-c2ccc(O)c(O)c2)oc2cc(O)cc(O)c12 [QUERCETIN] | 23.53 (≈ 77.9 µM) | – | – | – | 19.4 | – | 75.4
